{"source": "patent US20060167115A1", "about": "“Compositions for the preservation of timber” (priority 2003, published 2006)", "key": {"Coniophora puteana": {"test_system": "Coniophora puteana", "assay": "Biological efficacy test (EN 113), agar medium", "format": "cell-based", "from_the_text": "(§1) Two fungi were used: Coniophora puteana Brown rot fungus) and Poria placenta (Brown rot fungus). The preservative used was TBBA (waterborne). Seven concentrations of the preservative was used: 3.0%, 2.0%, 1.5%, 1.0%, 0.5%, 0.05%, and 0.0% (w/w), i.e. the carrier solution in the absence of the active material. All wood blocks were of Scots pine sapwood (Pinus sylvestris) with an approximate volume of 18.75 cm^3 (50 mm×25 mm×15 mm) in accordance with European standard EN 113. • Treated test specimens: 2 (fungi)×7 (preservative concentrations)×1 (preservative)×4 (replicates)=56 test blocks • Untreated test specimens (for exposure alongside treated blocks): 2 (fungi)×7 (preservative concentrations)×1 (preservative)×4 (replicates)=56 test blocks • Untreated test specimens (virulence): 2 (fungi)×6 (replicates)=12 test blocks • Treated check test specimens: 4 (replicates)×7 (preservative concentrations)×1 (preservative)=28 test blocks\n(§2) After block impregnation, according to European standard EN 113, and conditioning were completed, all the blocks were sterilized using ionizing radiation according to the conditions set out in EN 113. The incubation period for the test (length of block exposure to the chosen basidiomycete fungi) was 16 weeks.\n(§3) It was noted that some waterlogging of certain test and control specimens had occurred. In keeping with the EN 113 format, weight changes for particular waterlogged specimens, when these are clearly unrepresentative of a group, were not included in the mean figures presented. In addition, weight losses of unrepresentative specimens generally, were not included in the mean figures presented."}, "Poria placenta": {"test_system": "Poria placenta", "assay": "Biological efficacy test (EN 113), agar medium", "format": "cell-based", "from_the_text": "as §1, §2, §3"}}, "data": [{"compound": "CC(C)(c1cc(Br)c(O)c(Br)c1)c1cc(Br)c(O)c(Br)c1", "note": "[TBBA, Tetrabromobisphenol A]", "values": [{"measurement": "Corrected mean loss in mass (%)", "setting": "Coniophora puteana; TBBA waterborne 0.05% w/w, retention 0.39 kg/m^3, 16 weeks", "value": "46.82 (6.31) %"}, {"measurement": "Corrected mean loss in mass (%)", "setting": "Coniophora puteana; TBBA waterborne 0.5% w/w, retention 3.78 kg/m^3, 16 weeks", "value": "34.87 (13.21) %"}, {"measurement": "Corrected mean loss in mass (%)", "setting": "Coniophora puteana; TBBA waterborne 1.0% w/w, retention 7.30 kg/m^3, 16 weeks", "value": "37.27 (—) %"}, {"measurement": "Corrected mean loss in mass (%)", "setting": "Coniophora puteana; TBBA waterborne 1.5% w/w, retention 11.12 kg/m^3, 16 weeks", "value": "−1.30 (1.16) %"}, {"measurement": "Corrected mean loss in mass (%)", "setting": "Coniophora puteana; TBBA waterborne 2.0% w/w, retention 15.24 kg/m^3, 16 weeks", "value": "−6.79 (0.34) %"}, {"measurement": "Corrected mean loss in mass (%)", "setting": "Coniophora puteana; TBBA waterborne 3.0% w/w, retention 23.65 kg/m^3, 16 weeks", "value": "−1.06 (0.69) %"}, {"measurement": "Corrected mean loss in mass (%)", "setting": "Poria placenta; TBBA waterborne 0.05% w/w, retention 0.25 kg/m^3, 16 weeks", "value": "30.94 (2.90) %"}, {"measurement": "Corrected mean loss in mass (%)", "setting": "Poria placenta; TBBA waterborne 0.5% w/w, retention 3.79 kg/m^3, 16 weeks", "value": "7.94 (19.35) %"}, {"measurement": "Corrected mean loss in mass (%)", "setting": "Poria placenta; TBBA waterborne 1.0% w/w, retention 7.71 kg/m^3, 16 weeks", "value": "6.17 (14.50) %"}, {"measurement": "Corrected mean loss in mass (%)", "setting": "Poria placenta; TBBA waterborne 1.5% w/w, retention 11.81 kg/m^3, 16 weeks", "value": "−2.19 (070) %"}, {"measurement": "Corrected mean loss in mass (%)", "setting": "Poria placenta; TBBA waterborne 2.0% w/w, retention 12.84 kg/m^3, 16 weeks", "value": "−6.21 (0.44) %"}, {"measurement": "Corrected mean loss in mass (%)", "setting": "Poria placenta; TBBA waterborne 3.0% w/w, retention 20.70 kg/m^3, 16 weeks", "value": "−1.67 (0.22) %"}]}]}
